# Test results as given in patent US20170136008A1, “OXABICYCLOHEPTANES AND OXABICYCLOHEPTENES FOR THE TREATMENT OF OVARIAN CANCER” (priority 2014, published 2017).
# Key:
# Type in all cases: cell-based, human
# OVCAR-8 cells = experiment: Cell-cycle analysis (FACS), OVCAR-8; conditions: cisplatin 5 μM
# Method: (§1) For cell-cycle analysis, cells were washed with PBS and fixed overnight in ice-cold 70% ethanol and stored at 4° C. Cells were then centrifuged and resuspended in 100 U RNAse (Sigma-Aldrich), and incubated at 37° C. for 20 min. Propidiumidodide solution (Invitrogen, 500 μL, 50 μg/mL in DPBS) was added to each tube and incubated in the dark at 4° C. overnight. Flow cytometry analysis was performed with CellQuestPro and data analysis was completed with ModFit LT. All data is in triplicate and presented as a percent mean±SD.
# [1] = system: OVCAR-8 PP2Ac shRNA-expressing cells; experiment: Cell viability (MTT) assay, OVCAR-8 PP2Ac shRNA; conditions: OVCAR-8 PP2Ac shRNA
# Method: Cell survival was measured by the 3-(4,5-dimethylthiazol-2-yl)-2,5-diphenyltetrazolium bromide (MTT, Invitrogen) assay. Cells were seeded at a density of 5,000 cells per well in 96-well plates and incubated at 37° C. in humidified 5% CO2 for 24 hours. The 50% inhibitory concentration (IC50) values were defined as the drug concentrations required to reduce cellular proliferation to 50% of the untreated control well. […] All MTT assays were carried out according to the manufacturer's instructions (Molecular Probes, Eugen, Oreg.). Absorbance values were determined at […] on a Spectra Max 250 spectrophotometer (Molecular Devices, Sunnyvale, Calif.). All MTT assays were performed in triplicate. […] Cells were treated with both drugs for 72 h. Cell viability was analyzed via the MTT assay as described above. Experiments were performed in triplicate, and the data are presented as a percent mean±SD.
# To stably knockdown expression of PP2AC, a pLKO.1-puro plasmid-based […] shRNA targeting the sequence: […] (clone ID:TRCN0000002483, Sigma-Aldrich) was employed (PP2AC-shRNA). Additionally, a non-targeting shRNA plasmid (NT-shRNA) that targets no known human sequence was utilized as a control. […]
# [2] = system: PEO6 ovarian cancer cell line; experiment: MTT cytotoxicity assay, PEO6; conditions: read-out: IC50, viability of ovarian cancer cell line
# Method: (§2) SKOV-3 ovarian cancer cells were purchased from American Type Culture Collection (ATCC) (Manassas, Va.). SKOV-3 cells were cultured in McCoy's 5A medium (ATCC, Manassas, Va.) supplemented with 10% fetal bovine serum and 100 units/mL penicillin G sodium, 100 ug/mL streptomycin sulfate, and 292 μg/ml, L-glutamine (BioWhittaker, Wakersville, Md.). Luciferase-expressing cells were generated by infecting SKOV-3 cells with pCLNCX-luciferase retrovirus (SKOV-3-Luc) as previously reported (Wei, B. R. et al. 2009). Human OVCAR-8 ovarian cancer cells were provided by the National Cancer Institute (part of the NCI-60 collection). The PEO1, PEO4, and PEO6 ovarian cancer cell lines have previously been characterized (Langdon, S. P. et al. 1988) and were kindly provided by Dr. Ian Goldlust (National Center for Advancing Translational Sciences, Shady Grove, Md.). […]
# (§3) Cell survival was measured by the 3-(4,5-dimethylthiazol-2-yl)-2,5-diphenyltetrazolium bromide (MTT, Invitrogen) assay. […] Absorbance values were determined at […] on a Spectra Max 250 spectrophotometer (Molecular Devices, Sunnyvale, Calif.). […] Cell viability was analyzed via the MTT assay as described above. […]
# [3] = system: PEO1-Missense (PEO-1m) ovarian cancer cell line; experiment: MTT cytotoxicity assay, PEO1-Missense; conditions: PEO1-Missense; MTT; read-out: IC50, viability of ovarian cancer cell line
# Method: as §2, §3
# [4] = system: PEO4 ovarian cancer cell line; experiment: MTT cytotoxicity assay, PEO4; conditions: PEO4; MTT; read-out: IC50, viability of ovarian cancer cell line
# Method: as §2, §3
# [5] = system: SKOV-3 ovarian cancer cells; experiment: MTT cytotoxicity assay, SKOV-3; conditions: SK-OV3; MTT; read-out: IC50, viability of ovarian cancer cell line
# [6] = system: PEO1-STOP (PEO-1s) ovarian cancer cell line; experiment: MTT cytotoxicity assay, PEO1-STOP; conditions: PEO1-STOP; MTT; read-out: IC50, viability of ovarian cancer cell line
# Method: as §2, §3
# [7] = system: OVCAR-8 ovarian cancer cells; experiment: MTT cytotoxicity assay, OVCAR-8; conditions: OVCAR8, read-out: IC50, viability of ovarian cancer cell line
# Method: as §2, §3
# SKOV-3 cells = experiment: Cell-cycle analysis (FACS), SKOV-3
# Method: as §1
smiles,measurement,setting,value
"N.N.[Cl][Pt][Cl] [Cisplatin, cis-[PtCl2(NH3)2], reference compound]",G1 (%),OVCAR-8 cells; 24 h,4.6 ± 2.0%
same,G2/M (%),OVCAR-8 cells; 24 h,13.4 ± 0.6%
same,S (%),OVCAR-8 cells; 24 h,81.9 ± 1.6%
same,G1 (%),OVCAR-8 cells; 48 h,0.85 ± 0.3%
same,G2/M (%),OVCAR-8 cells; 48 h,78.5 ± 2.2%
same,S (%),OVCAR-8 cells; 48 h,20.7 ± 2.1%
same,"sensitivity to cisplatin, PP2Ac knockdown compared to non-targeted control",[1],sensitized
same,IC50,[2],8 ± 1.9 µM
same,IC50,[3],2.1 ± 0.4 µM
same,IC50,[4],4.3 ± 1.8 µM
same,IC50,[5],7.6 ± 1.6 µM
same,IC50,[6],2.3 ± 0.3 µM
same,IC50,[7],7.2 ± 2.3 µM
same,G1 (%),"SKOV-3 cells; 24 h, cisplatin 2 μM",23.0 ± 0.2%
same,G2/M (%),"SKOV-3 cells; 24 h, cisplatin 2 μM",8.4 ± 0.3%
same,S (%),"SKOV-3 cells; 24 h, cisplatin 2 μM",68.6 ± 0.1%
same,G1 (%),"SKOV-3 cells; 24 h, cisplatin 5 μM",11.6 ± 0.5%
same,G2/M (%),"SKOV-3 cells; 24 h, cisplatin 5 μM",13.5 ± 0.7%
same,S (%),"SKOV-3 cells; 24 h, cisplatin 5 μM",75.2 ± 1.0%
same,G1 (%),"SKOV-3 cells; 24 h, cisplatin 18 μM",49.8 ± 2.3%
same,G2/M (%),"SKOV-3 cells; 24 h, cisplatin 18 μM",16.6 ± 1.3%
same,S (%),"SKOV-3 cells; 24 h, cisplatin 18 μM",33.6 ± 1.8%
same,S (%),"SKOV-3 cells; 24 h, cisplatin 18 μM, listed as cisplatin",33±2%
same,G1 (%),"SKOV-3 cells; 24 h, cisplatin 20 μM",67.7 ± 1.2%
same,G2/M (%),"SKOV-3 cells; 24 h, cisplatin 20 μM",16.3 ± 0.9%
same,S (%),"SKOV-3 cells; 24 h, cisplatin 20 μM",16.0 ± 1.2%
same,G1 (%),"SKOV-3 cells; 48 h, cisplatin 18 μM",40.4 ± 0.8%
same,G2/M (%),"SKOV-3 cells; 48 h, cisplatin 18 μM",21.2 ± 1.0%
same,S (%),"SKOV-3 cells; 48 h, cisplatin 18 μM",38.4 ± 0.5%
